Data on three compounds can be found in PMC9860869, “First Phytochemical Profiling and In-Vitro Antiprotozoal Activity of Essential Oil and Extract of Plagiochila porelloides” (Molecules, 2023).

One may read the IC50 as the point on the concentration scale where inhibition reaches its midpoint.

For series [1], the system named is Leishmania mexicana mexicana promastigotes. Briefly: In vitro test for antileishmanial activity. The settings on record: Lmm promastigotes, pure compound (positive control), read-out: Antiprotozoal assay IC50 ± SD Lmm. Format: cell-based. The procedure: (§1) Trypanosoma brucei brucei (strain 427) bloodstream forms were cultured in vitro in HMI9 medium containing 10% heat-inactivated fetal bovine serum. Leishmania mexicana mexicana promastigotes (MHOM/BZ/84/BEL46) were cultivated in vitro in a semi-defined medium (SDM-79) supplemented with 15% heat-inactivated fetal bovine serum. The human normal fibroblast cell line, WI-38, was cultivated in vitro in DMEM medium containing 4 mM L-glutamine, 1 mM sodium pyruvate supplemented with 10% heat-inactivated fetal bovine serum and penicillin–streptomycin (100 UI/mL to 100 µg/mL). All cells were incubated in a humidified atmosphere with 5% CO2 at 37 °C except the Leishmania promastigotes which were incubated at 28 °C.
(§2) The in vitro test was performed as described previously. Pentamidine isethionate salt (a commercial antileishmanial drug) and suramine sodium salt (a commercial antitrypanosomal drug) were used as positive controls in all experiments with an initial concentration of 10 µg/mL. First, stock solutions of crude extracts and compounds were prepared in DMSO at 20 mg/mL (and 2 mg/mL for positive controls). The solutions were further diluted in medium to give 0.2 mg/mL stock solutions. Essential oil and extracts were tested in eight serial three-fold dilutions (final concentration range: 100–0.05 µg/mL) in 96-well microtiter plates. All tests were repeated three times in duplicate.

Series [2] in a line: Cytotoxicity assay on WI38 cells. Format: cell-based. Particulars: human, WI-38 normal fibroblast cells, pure compound (positive control), read-out: Cytotoxicity IC50 ± SD WI38. As to the method: as §1
(§3) The cytotoxicity of the essential oil and extracts on WI-38 and J774 cells was evaluated as previously described from the same stock solutions [45].

Series [3] is described as follows: Cytotoxicity assay on J774 cells. The series is classed as cell-based, murine. Particulars: mouse, J774 macrophage-like cells, pure compound (positive control), read-out: Cytotoxicity IC50 ± SD J774. The procedure:
as §3

Series [4] relates to Trypanosoma brucei brucei (bloodstream forms). Briefly: In vitro test for antitrypanosomal activity. Particulars: Tbb bloodstream forms, pure compound (positive control), read-out: Antiprotozoal assay IC50 ± SD Tbb. Format: cell-based. The procedure: as §1, §2

Turning to `N=C(N)c1ccc(OCCCCCOc2ccc(C(=N)N)cc2)cc1` [Pentamidine], the half-inhibitory concentration (IC50) in series [1] was found to be 0.07 ± 0.004 µM.
As for `CC[C@@]1(O)C(=O)OCc2c1cc1n(c2=O)Cc2cc3ccccc3nc2-1` [Camptothecin], the IC50 came out at 0.031 ± 0.002 µM in series [2] and 0.01 ± 0.001 µM in series [3].
For `Cc1ccc(C(=O)Nc2ccc(S(=O)(=O)O)c3cc(S(=O)(=O)O)cc(S(=O)(=O)O)c23)cc1NC(=O)c1cccc(NC(=O)Nc2cccc(C(=O)Nc3cc(C(=O)Nc4ccc(S(=O)(=O)O)c5cc(S(=O)(=O)O)cc(S(=O)(=O)O)c45)ccc3C)c2)c1` [Suramine], the half-inhibitory concentration (IC50) in series [4] amounted to 0.03 ± 0.004 µM.
